Results published in ChEMBL document CHEMBL5143522, “Discovery of novel 6-hydroxybenzothiazole urea derivatives as dual Dyrk1A/α-synuclein aggregation inhibitors with neuroprotective effects” (Eur J Med Chem, 2022).
Calls of active or inactive are those of the source. The rule behind the calls is not given here.

Tests used:
[1] = molecular target: T1, Dual specificity tyrosine-phosphorylation-regulated kinase 1A (Homo sapiens, UniProt Q13627); experiment: Inhibition of human Dyrk1A
[2] = molecular target: T2, Dual specificity tyrosine-phosphorylation-regulated kinase 2 (Homo sapiens, UniProt Q92630); experiment: Inhibition of Dyrk2 (unknown origin)
T2 sequence (Q92630 whole entry): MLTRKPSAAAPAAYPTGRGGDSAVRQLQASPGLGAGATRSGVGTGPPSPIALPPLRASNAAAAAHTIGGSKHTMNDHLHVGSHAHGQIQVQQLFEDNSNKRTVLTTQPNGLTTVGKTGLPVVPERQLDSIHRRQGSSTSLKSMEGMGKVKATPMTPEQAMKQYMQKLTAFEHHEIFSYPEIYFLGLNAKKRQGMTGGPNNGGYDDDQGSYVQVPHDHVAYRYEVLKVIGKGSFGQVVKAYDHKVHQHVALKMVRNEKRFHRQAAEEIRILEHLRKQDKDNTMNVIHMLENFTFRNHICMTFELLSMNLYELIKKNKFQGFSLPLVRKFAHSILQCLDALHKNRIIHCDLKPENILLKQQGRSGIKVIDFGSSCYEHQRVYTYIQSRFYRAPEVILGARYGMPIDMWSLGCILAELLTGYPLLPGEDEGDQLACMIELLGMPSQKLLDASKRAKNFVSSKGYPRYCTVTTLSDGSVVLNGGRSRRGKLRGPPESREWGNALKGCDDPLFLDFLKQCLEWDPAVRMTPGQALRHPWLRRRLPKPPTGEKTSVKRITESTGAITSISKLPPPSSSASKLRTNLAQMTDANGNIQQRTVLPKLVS

[3] = molecular target: Dual specificity tyrosine-phosphorylation-regulated kinase 1B (Homo sapiens) (UniProt Q9Y463); experiment: Inhibition of human recombinant DYRK1B at 1 uM using KKISGRLSPIMTEQ as substrate incubated in presence of ATP relative to control
SH-SY5Y [4] = experiment: Neuroprotective activity against alpha-syn induced cytotoxicity against human SH-SY5Y cells assessed as increase in cell viability at 10 uM by MTT assay; format: functional, cell-based
[5] = Permeability of the compound in PBS/EtOH buffer (7:3) incubated for 16 hrs by PAMPA-BBB assay
[6] = molecular target: T1, Dual specificity tyrosine-phosphorylation-regulated kinase 1A; details: dose 250.0 nM
[7] = molecular target: Serine/threonine-protein kinase pim-1 (Homo sapiens) (UniProt P11309); experiment: Inhibition of PIM1 (unknown origin) at 1 uM incubated in presence of ATP by Selectscreen kinase assay relative to control
[8] = molecular target: T3, Dual specificity tyrosine-phosphorylation-regulated kinase 2 (Homo sapiens) (UniProt Q92630); experiment: Inhibition of DYRK2 (unknown origin) at 1 uM incubated in presence of ATP by Selectscreen kinase assay relative to control
T3 sequence (whole entry): T2 sequence (Q92630 whole entry)

[9] = molecular target: Myosin light chain kinase 2, skeletal/cardiac muscle (Homo sapiens) (UniProt Q9H1R3); experiment: Inhibition of MLCK2 (unknown origin) at 1 uM incubated in presence of ATP by Selectscreen kinase assay relative to control
[10] = molecular target: SRSF protein kinase 1 (Homo sapiens) (UniProt Q96SB4); experiment: Inhibition of SRPK1 (unknown origin) at 1 uM incubated in presence of ATP by Selectscreen kinase assay relative to control
[11] = molecular target: T4, Serine/threonine-protein kinase haspin (Homo sapiens) (UniProt Q8TF76); experiment: Inhibition of GSG2 (unknown origin) at 1 uM incubated in presence of ATP by Selectscreen kinase assay relative to control
T4 sequence (whole entry): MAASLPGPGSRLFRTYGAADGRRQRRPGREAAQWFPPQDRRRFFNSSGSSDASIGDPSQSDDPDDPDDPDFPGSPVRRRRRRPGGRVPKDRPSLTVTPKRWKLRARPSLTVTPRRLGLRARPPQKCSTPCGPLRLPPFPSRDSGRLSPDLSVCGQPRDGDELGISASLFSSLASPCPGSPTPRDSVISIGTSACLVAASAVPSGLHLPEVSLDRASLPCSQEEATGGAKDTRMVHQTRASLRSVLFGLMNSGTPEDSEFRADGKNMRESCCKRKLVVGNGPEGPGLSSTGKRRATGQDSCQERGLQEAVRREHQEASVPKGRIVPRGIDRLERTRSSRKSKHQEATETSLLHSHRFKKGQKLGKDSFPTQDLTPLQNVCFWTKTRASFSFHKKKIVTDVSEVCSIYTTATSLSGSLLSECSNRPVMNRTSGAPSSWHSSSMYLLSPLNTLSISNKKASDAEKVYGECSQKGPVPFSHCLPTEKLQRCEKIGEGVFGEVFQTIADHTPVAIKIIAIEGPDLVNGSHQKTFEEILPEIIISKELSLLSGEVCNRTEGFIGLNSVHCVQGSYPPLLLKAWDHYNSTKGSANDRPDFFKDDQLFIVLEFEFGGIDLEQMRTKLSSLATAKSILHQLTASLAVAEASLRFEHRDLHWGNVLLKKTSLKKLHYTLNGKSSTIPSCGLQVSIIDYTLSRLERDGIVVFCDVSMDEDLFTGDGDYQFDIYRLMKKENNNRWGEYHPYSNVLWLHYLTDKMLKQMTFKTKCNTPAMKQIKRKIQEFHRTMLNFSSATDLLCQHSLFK

[12] = molecular target: Glycogen synthase kinase-3 beta (Homo sapiens) (UniProt P49841); experiment: Inhibition of GSK3beta (unknown origin) at 1 uM incubated in presence of ATP by Selectscreen kinase assay relative to control
[13] = molecular target: T5, Serine/threonine-protein kinase 17A (Homo sapiens) (UniProt Q9UEE5); experiment: Inhibition of STK17A (unknown origin) at 1 uM incubated in presence of ATP by Selectscreen kinase assay relative to control
T5 sequence (whole entry): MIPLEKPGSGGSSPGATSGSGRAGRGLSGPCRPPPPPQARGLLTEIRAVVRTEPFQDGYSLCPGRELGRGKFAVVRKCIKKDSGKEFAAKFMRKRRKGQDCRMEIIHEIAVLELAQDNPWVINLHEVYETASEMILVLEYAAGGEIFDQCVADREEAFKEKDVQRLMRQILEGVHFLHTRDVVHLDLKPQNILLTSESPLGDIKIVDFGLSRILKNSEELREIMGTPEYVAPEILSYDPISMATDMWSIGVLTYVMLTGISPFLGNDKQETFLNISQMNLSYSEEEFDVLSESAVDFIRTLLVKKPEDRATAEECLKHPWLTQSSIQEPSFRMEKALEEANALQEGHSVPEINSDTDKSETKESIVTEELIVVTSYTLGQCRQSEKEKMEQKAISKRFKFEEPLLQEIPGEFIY

[14] = molecular target: Cyclin-dependent kinase 5/CDK5 activator 1 (Homo sapiens) (UniProt Q00535+Q15078); experiment: Inhibition of CDK5/p25 (unknown origin) at 1 uM by Selectscreen kinase assay relative to control; format: protein-complex assay
[15] = molecular target: Casein kinase I isoform delta (Homo sapiens) (UniProt P48730); experiment: Inhibition of CSNK1D (unknown origin) at 1 uM incubated in presence of ATP by Selectscreen kinase assay relative to control
[16] = molecular target: Dual specificity protein kinase CLK1 (Homo sapiens) (UniProt P49759); experiment: Inhibition of GST-tagged human recombinant CLK1 (129 to 484 residues) expressed in Escherichia coli at 1 uM using GRSRSRSRSRSRSRSR as substrate incubated in presence of ATP by Selectscreen kinase assay relative to control
[17] = molecular target: T1, Dual specificity tyrosine-phosphorylation-regulated kinase 1A; experiment: Inhibition of human N-terminal His6-tagged DYRK1A expressed in Escherichia coli BL21 (DE3) using KKISGRLSPIMTEQ as substrate incubated in presence of ATP
[18] = molecular target: Homeodomain-interacting protein kinase 1 (Homo sapiens) (UniProt Q86Z02); experiment: Inhibition of HIPK1 (unknown origin) at 1 uM incubated in presence of ATP by Selectscreen kinase assay relative to control
SH-SY5Y [19] = experiment: Neuroprotective activity against 6-OHDA induced cytotoxicity against human SH-SY5Y cells assessed as increase in cell viability at 10 uM by MTT assay; format: functional, cell-based
[20] = molecular target: T1, Dual specificity tyrosine-phosphorylation-regulated kinase 1A; experiment: Inhibition of DYRK1A in human HeLa cells transiently expressing GFP-SF3B1 fusion protein assessed as reduction in SF3B1 phosphorylation incubated for 24 hrs by immunoblot analysis; format: cell-based
[21] = molecular target: T1, Dual specificity tyrosine-phosphorylation-regulated kinase 1A; experiment: Binding affinity to C-terminal HiBiT-tagged human DYRK1A (28 to 499 residues) stably expressed in HEK293 cells assessed as thermal stability by measuring increase in DYRK1A in soluble fraction at 10 to 30 uM incubated for 3.5 mins by ITDRF-CETSA analysis; format: cell-based; details: dose 10-30 µM

Sequence of Dual specificity tyrosine-phosphorylation-regulated kinase 1B (Homo sapiens) (Q9Y463 whole entry, looked up): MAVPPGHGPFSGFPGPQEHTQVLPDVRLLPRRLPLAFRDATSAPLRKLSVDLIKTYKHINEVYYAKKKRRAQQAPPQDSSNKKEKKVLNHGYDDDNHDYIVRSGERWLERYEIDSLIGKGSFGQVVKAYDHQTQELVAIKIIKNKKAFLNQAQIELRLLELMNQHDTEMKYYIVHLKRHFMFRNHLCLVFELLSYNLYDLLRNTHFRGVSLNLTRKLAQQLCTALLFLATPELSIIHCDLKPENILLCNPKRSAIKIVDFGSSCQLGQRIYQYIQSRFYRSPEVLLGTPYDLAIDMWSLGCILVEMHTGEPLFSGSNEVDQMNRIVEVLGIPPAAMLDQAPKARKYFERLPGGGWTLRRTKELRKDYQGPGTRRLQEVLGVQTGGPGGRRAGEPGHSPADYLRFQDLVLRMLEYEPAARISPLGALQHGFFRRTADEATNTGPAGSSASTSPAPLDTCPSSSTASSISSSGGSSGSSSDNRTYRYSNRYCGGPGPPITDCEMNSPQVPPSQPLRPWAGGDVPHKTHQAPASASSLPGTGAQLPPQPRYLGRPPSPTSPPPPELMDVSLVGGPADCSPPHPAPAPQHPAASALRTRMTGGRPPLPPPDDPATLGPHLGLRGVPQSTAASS
Sequence of Casein kinase I isoform delta (Homo sapiens) (P48730 whole entry, looked up, the tested form may be a part, canonical isoform): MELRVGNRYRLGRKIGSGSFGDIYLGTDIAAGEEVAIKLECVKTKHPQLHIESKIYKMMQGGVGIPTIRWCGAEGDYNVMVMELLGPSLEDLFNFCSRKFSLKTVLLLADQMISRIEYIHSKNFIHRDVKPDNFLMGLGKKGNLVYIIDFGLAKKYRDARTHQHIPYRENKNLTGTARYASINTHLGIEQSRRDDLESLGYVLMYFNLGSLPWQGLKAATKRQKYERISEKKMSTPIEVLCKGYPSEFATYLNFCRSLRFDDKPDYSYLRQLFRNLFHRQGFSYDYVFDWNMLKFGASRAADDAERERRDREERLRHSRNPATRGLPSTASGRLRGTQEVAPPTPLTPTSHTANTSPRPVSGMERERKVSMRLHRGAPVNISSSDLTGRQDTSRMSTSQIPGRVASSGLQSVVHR
Sequence of SRSF protein kinase 1 (Homo sapiens) (Q96SB4 whole entry): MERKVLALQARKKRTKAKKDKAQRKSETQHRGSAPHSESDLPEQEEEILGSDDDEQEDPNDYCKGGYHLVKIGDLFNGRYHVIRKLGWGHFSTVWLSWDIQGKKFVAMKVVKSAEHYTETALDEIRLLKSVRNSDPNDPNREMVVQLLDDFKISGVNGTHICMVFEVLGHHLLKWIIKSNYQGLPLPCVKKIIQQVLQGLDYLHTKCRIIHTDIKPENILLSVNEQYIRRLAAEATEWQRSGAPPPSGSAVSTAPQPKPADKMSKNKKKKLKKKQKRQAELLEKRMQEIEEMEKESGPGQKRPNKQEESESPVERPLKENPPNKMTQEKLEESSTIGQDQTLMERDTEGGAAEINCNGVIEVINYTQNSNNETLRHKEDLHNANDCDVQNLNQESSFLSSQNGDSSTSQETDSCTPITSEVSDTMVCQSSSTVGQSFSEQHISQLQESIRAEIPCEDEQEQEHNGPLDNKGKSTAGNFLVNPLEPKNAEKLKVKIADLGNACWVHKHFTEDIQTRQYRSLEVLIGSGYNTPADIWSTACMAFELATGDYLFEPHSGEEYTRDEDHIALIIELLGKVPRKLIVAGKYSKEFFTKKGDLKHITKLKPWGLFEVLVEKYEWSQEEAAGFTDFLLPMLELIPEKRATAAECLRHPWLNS
Sequence of Dual specificity protein kinase CLK1 (Homo sapiens) (P49759 whole entry, looked up, the tested form may be a part): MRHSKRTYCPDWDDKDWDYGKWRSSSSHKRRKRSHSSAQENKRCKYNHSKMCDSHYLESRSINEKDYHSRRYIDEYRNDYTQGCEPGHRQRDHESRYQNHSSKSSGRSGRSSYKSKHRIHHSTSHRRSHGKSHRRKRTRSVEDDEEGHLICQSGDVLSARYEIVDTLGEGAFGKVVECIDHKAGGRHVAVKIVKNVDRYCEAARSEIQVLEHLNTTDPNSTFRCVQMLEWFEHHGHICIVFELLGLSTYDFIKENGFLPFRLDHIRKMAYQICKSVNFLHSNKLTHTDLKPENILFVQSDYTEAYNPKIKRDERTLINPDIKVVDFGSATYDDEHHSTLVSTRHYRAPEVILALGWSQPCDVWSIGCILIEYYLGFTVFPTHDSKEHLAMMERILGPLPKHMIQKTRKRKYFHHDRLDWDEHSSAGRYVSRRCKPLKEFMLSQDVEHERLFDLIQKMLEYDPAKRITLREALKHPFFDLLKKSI
Sequence of Glycogen synthase kinase-3 beta (Homo sapiens) (P49841 whole entry, looked up): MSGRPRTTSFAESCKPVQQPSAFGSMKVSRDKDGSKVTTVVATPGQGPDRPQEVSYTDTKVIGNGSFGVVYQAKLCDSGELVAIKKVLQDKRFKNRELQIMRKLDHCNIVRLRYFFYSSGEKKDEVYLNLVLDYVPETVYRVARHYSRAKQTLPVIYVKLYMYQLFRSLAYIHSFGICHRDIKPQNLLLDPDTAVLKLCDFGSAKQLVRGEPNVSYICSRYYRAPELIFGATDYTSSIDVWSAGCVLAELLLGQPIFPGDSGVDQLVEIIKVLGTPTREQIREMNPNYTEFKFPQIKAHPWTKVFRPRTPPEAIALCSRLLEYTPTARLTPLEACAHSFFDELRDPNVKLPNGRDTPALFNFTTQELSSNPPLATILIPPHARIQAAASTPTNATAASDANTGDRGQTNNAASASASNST
Sequence of Serine/threonine-protein kinase pim-1 (Homo sapiens) (P11309 whole entry, looked up): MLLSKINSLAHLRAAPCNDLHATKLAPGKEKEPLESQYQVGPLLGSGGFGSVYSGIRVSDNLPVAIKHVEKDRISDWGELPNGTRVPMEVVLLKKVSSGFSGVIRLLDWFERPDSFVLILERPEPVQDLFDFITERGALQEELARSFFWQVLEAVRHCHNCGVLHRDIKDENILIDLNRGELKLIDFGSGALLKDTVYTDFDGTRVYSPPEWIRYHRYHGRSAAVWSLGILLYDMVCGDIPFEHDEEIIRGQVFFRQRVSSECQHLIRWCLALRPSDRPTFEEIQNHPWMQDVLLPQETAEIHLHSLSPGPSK
Sequence of Cyclin-dependent kinase 5/CDK5 activator 1 (Homo sapiens) (Q00535 whole entry, canonical isoform): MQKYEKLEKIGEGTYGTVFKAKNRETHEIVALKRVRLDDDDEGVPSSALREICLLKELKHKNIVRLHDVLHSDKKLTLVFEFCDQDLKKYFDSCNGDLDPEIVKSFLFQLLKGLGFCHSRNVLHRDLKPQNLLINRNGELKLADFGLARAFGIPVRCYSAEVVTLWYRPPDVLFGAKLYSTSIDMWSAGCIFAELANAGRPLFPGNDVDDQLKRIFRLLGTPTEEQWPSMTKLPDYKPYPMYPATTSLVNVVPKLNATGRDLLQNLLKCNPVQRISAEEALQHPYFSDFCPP
Sequence of Cyclin-dependent kinase 5/CDK5 activator 1 (Homo sapiens) (Q15078 99-307 partner limits assumed): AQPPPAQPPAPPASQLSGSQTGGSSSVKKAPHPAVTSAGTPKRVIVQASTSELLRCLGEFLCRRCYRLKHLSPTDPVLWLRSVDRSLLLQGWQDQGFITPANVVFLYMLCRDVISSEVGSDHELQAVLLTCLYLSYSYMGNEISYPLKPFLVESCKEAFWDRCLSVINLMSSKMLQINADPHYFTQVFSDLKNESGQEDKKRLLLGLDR
Sequence of Myosin light chain kinase 2, skeletal/cardiac muscle (Homo sapiens) (Q9H1R3 whole entry): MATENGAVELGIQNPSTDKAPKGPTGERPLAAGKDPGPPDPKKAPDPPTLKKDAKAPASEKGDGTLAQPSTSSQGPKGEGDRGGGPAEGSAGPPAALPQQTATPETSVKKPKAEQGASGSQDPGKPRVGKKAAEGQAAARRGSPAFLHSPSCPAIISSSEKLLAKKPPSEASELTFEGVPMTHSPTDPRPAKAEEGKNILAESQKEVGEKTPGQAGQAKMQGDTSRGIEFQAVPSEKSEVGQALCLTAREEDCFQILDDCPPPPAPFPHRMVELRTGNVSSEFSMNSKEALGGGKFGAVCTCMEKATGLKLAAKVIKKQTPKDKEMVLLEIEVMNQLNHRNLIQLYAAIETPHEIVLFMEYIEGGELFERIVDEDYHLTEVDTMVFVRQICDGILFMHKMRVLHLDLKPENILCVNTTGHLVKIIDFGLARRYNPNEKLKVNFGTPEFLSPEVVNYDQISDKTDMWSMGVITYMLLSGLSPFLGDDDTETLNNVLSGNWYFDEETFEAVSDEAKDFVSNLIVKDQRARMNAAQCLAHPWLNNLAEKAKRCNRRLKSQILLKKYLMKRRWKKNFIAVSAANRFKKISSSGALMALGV

## CN1CCN(C(=O)c2ccc(NC(=O)Nc3nc4ccc(O)cc4s3)cc2)CC1
[1]
  IC50: 93 nM
[2]
  IC50: > 5 µM

## N#Cc1cccc(C(=O)Nc2ccc(NC(=O)Nc3nc4ccc(O)cc4s3)cc2)c1
[3]
  inhibition: 36%

## O=C(Nc1ccc(NC(=O)c2cccc(O)c2)cc1)Nc1nc2ccc(O)cc2s1
SH-SY5Y [4]
  Activity: Active
[5]
  Papp at 16 h: 6.5 ×10⁻⁶ cm/s
[3]
  inhibition: 46%

## N#Cc1ccc(C(=O)Nc2ccc(NC(=O)Nc3nc4ccc(O)cc4s3)cc2)cc1
[3]
  inhibition: 23%

## O=C(Nc1ccc(NC(=O)c2cc(F)c(F)c(F)c2)cc1)Nc1nc2ccc(O)cc2s1
[3]
  inhibition: 10%

## O=C(Nc1ccc(NC(=O)c2ccc(Cl)cc2)cc1)Nc1nc2ccc(O)cc2s1
[3]
  inhibition: 6%

## O=C(Nc1ccc(NS(=O)(=O)c2cccc(F)c2)cc1)Nc1nc2ccc(O)cc2s1
[6]
  inhibition: 79%
[7]
  inhibition: 3%
[8]
  inhibition: 27%
[9]
  inhibition: 18%
[10]
  inhibition: 4%
[11]
  inhibition: 3%
[12]
  inhibition: 15%
[13]
  inhibition: 29%
[14]
  inhibition: 5%
[3]
  inhibition: 15%
[15]
  inhibition: 15%
[16]
  inhibition: 7%
[17]
  IC50: 45 nM
[18]
  inhibition: 2%

## O=C(Nc1ccc(NC(=O)C2CCCCC2)cc1)Nc1nc2ccc(O)cc2s1
[3]
  inhibition: 25%

## O=C(Nc1ccc(NC(=O)c2ccccc2)cc1)Nc1nc2ccc(O)cc2s1
[6]
  inhibition: 65%
[3]
  inhibition: 34%
[17]
  IC50: 154 nM

## O=C(Nc1ccc(NC(=O)c2ccccc2F)cc1)Nc1nc2ccc(O)cc2s1
[3]
  inhibition: 17%

## O=C(Nc1ccc(NC(=O)c2cccc(Br)c2)cc1)Nc1nc2ccc(O)cc2s1
[3]
  inhibition: 13%

## O=C(Nc1ccc(NC(=O)C2CCNCC2)cc1)Nc1nc2ccc(O)cc2s1
[6]
  inhibition: 69%
[5]
  Papp at 16 h: 4.4 ×10⁻⁶ cm/s
[3]
  inhibition: 51%
SH-SY5Y [19]
  Activity: Active
[17]
  IC50: 177 nM

## COc1ccc2c(c1)[nH]c1c(C)nccc12
SH-SY5Y [19]
  Activity: Active

## CC(=O)Nc1ccc(NC(=O)Nc2nc3ccc(O)cc3s2)cc1
[3]
  inhibition: 65%

## O=C(Nc1ccc(NC(=O)C2CC2)cc1)Nc1nc2ccc(O)cc2s1
[6]
  inhibition: 62%
[3]
  inhibition: 29%
[17]
  IC50: 159 nM

## O=C(Nc1ccc(NC(=O)c2cc(F)cc(F)c2)cc1)Nc1nc2ccc(O)cc2s1
[3]
  inhibition: 11%

## O=C(Nc1ccc(NC(=O)c2cc(Cl)cc(Cl)c2)cc1)Nc1nc2ccc(O)cc2s1
[3]
  inhibition: 11%

## O=C(Nc1ccc(NC(=O)C2CCC2)cc1)Nc1nc2ccc(O)cc2s1
[3]
  inhibition: 26%

## CCn1cc(C(=O)O)c(=O)c2cc(F)c(N3CCNCC3)cc21 [NORFLOXACIN]
[5]
  Papp at 16 h: 1.1 ×10⁻⁶ cm/s

## O=C(Nc1ccc(NS(=O)(=O)c2ccccc2F)cc1)Nc1nc2ccc(O)cc2s1
[3]
  inhibition: 19%

## O=C(Nc1ccc(NC(=O)c2cccc(C(F)(F)F)c2)cc1)Nc1nc2ccc(O)cc2s1
[3]
  inhibition: 14%

## O=C(Nc1ccc(NS(=O)(=O)c2cc(F)cc(F)c2)cc1)Nc1nc2ccc(O)cc2s1
[3]
  inhibition: 9%

## Cc1cccc(C(=O)Nc2ccc(NC(=O)Nc3nc4ccc(O)cc4s3)cc2)c1
[3]
  inhibition: 30%

## O=C(Nc1ccc(NS(=O)(=O)c2ccccc2)cc1)Nc1nc2ccc(O)cc2s1
[3]
  inhibition: 18%

## O=C(Nc1ccc(NC(=O)c2ccc(F)cc2)cc1)Nc1nc2ccc(O)cc2s1
[3]
  inhibition: 13%

## O=C(Nc1ccc(NC(=O)c2cccc(Cl)c2)cc1)Nc1nc2ccc(O)cc2s1
[3]
  inhibition: 18%

## O=C(Nc1cccc(NS(=O)(=O)c2cccc(F)c2)c1)Nc1nc2ccc(O)cc2s1
[3]
  inhibition: 10%

## O=C(Nc1ccc(NC(=O)c2c(F)cc(F)cc2F)cc1)Nc1nc2ccc(O)cc2s1
[3]
  inhibition: 17%

## O=C(Nc1ccc(NC(=O)c2cccc(F)c2)cc1)Nc1nc2ccc(O)cc2s1
[3]
  inhibition: 9%

## O=C(Cc1ccccc1)Nc1ccc(NC(=O)Nc2nc3ccc(O)cc3s2)cc1
[6]
  inhibition: 75%
[7]
  inhibition: 3%
[8]
  inhibition: 20%
[20]
  IC50: 690 nM
[5]
  Papp at 16 h: 7.9 ×10⁻⁶ cm/s
[10]
  inhibition: 4%
[12]
  inhibition: 8%
[21]
  Activity: Active
[13]
  inhibition: 28%
[14]
  inhibition: 6%
[15]
  inhibition: 6%
[16]
  inhibition: 21%
[17]
  IC50: 20 nM
